Experimental data as given in paper doi:10.1101/2023.11.24.568596v1 (biorxiv, 2023).
Values belong to the compound of their own block, whether it stands above or below them.

How the values were obtained:
Details in all cases: binder
ABL1 = ABL1 (Homo sapiens, UniProt P00519)
CDK2 = CDK2 (Homo sapiens, UniProt P24941)
CLK3 = CLK3 (Homo sapiens, UniProt P49761)
DRAK1 = biological target: T1, DRAK1 (Homo sapiens, UniProt Q9UEE5)
T1 sequence (Q9UEE5 1-414): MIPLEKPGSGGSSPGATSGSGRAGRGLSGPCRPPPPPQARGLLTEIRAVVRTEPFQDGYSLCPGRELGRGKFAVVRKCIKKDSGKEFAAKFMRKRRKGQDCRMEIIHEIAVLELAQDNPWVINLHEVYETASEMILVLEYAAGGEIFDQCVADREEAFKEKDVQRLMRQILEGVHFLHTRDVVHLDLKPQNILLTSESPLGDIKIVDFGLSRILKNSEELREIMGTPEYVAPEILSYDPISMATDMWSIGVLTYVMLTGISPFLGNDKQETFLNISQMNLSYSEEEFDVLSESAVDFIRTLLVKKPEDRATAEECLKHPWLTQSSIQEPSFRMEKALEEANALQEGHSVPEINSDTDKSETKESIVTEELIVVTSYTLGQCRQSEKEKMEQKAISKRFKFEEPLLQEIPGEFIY

EphA2 = EphA2 (Homo sapiens, UniProt P29317)
Erk2 = Erk2 (Homo sapiens, UniProt P28482)
FLT1 = FLT1 (Homo sapiens, UniProt P17948)
MAP2K4 = biological target: T2, MAP2K4 (Homo sapiens, UniProt P45985)
T2 sequence (P45985 1-399): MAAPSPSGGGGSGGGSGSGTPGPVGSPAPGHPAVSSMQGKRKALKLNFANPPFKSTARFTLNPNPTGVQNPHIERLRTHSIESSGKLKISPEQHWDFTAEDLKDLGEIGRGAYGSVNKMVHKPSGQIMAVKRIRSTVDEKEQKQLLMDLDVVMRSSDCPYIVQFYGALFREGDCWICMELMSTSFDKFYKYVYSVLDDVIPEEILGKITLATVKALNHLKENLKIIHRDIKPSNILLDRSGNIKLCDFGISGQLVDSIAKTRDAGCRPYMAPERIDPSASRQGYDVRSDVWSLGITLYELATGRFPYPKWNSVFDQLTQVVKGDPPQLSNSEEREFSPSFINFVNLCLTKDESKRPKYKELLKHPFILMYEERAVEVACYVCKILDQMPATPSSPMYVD

PLK4 = biological target: T3, PLK4 (Homo sapiens, UniProt O00444)
T3 sequence (O00444 1-970): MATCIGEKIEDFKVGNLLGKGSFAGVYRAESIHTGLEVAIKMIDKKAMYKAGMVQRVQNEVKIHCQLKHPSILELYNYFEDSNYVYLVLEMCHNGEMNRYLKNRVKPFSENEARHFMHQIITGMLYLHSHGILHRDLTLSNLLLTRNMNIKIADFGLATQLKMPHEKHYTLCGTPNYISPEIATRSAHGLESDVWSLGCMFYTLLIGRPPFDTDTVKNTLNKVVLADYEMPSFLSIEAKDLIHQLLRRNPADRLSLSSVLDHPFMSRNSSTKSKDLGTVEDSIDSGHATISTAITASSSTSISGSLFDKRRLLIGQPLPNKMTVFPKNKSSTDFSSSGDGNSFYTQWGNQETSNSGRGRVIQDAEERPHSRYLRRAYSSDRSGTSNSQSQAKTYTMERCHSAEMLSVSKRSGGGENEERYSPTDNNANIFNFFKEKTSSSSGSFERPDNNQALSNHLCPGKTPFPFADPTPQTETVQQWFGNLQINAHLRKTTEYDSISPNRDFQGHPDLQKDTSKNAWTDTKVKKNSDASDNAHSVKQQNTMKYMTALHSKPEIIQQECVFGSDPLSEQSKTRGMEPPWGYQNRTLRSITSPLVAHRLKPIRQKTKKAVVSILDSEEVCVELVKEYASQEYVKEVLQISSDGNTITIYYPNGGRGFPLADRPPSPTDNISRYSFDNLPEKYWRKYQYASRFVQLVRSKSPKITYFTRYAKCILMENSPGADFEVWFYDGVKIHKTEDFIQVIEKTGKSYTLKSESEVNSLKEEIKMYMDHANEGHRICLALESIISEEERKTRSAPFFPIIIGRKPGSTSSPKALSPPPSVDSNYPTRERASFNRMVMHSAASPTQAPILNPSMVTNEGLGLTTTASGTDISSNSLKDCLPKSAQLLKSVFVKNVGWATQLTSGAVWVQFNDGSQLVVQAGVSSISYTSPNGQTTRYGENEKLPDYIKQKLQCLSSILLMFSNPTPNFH

Chain of FLT1 (P17948 whole entry): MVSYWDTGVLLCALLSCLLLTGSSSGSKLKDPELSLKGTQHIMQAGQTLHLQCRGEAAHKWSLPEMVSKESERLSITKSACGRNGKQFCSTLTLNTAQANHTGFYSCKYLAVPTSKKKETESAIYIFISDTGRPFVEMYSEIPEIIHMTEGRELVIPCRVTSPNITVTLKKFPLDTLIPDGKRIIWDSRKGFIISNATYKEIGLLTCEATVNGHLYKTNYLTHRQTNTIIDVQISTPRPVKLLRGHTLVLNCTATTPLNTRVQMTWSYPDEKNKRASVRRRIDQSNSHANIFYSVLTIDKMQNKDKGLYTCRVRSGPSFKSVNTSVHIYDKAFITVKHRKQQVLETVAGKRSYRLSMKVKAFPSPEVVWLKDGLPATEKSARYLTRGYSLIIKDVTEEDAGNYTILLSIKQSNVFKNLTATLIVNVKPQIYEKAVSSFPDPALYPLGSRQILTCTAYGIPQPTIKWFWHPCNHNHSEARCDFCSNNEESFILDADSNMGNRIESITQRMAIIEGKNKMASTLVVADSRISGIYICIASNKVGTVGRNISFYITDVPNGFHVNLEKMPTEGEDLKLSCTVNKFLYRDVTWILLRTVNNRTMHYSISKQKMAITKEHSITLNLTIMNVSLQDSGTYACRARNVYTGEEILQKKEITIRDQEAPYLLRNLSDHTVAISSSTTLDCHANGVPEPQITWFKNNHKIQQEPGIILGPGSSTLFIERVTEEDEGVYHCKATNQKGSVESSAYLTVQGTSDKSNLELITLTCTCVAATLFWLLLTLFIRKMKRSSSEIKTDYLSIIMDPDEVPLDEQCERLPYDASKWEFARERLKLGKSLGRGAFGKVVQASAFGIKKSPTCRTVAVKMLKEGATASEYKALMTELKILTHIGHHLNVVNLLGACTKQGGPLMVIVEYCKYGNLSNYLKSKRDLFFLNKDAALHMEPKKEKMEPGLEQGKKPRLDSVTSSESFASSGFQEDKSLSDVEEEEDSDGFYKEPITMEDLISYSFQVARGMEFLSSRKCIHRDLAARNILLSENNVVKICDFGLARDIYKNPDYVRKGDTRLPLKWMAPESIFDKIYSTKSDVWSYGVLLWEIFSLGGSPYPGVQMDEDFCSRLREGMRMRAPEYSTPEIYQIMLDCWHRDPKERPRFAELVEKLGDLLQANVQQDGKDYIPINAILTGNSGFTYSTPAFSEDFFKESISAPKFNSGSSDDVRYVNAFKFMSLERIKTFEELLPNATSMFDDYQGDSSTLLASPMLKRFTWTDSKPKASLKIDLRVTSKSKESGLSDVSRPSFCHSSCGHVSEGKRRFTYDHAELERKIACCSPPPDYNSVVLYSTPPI
Chain of Erk2 (P28482 whole entry): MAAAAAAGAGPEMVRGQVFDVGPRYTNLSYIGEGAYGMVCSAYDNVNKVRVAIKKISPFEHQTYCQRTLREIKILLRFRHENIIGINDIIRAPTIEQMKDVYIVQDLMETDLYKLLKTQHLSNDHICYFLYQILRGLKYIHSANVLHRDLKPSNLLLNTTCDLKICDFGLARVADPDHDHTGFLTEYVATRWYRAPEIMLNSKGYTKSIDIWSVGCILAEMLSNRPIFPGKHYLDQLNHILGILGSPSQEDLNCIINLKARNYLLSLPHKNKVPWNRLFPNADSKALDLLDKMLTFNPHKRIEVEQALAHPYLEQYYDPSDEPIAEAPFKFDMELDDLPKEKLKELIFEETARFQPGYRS
Chain of ABL1 (P00519 whole entry): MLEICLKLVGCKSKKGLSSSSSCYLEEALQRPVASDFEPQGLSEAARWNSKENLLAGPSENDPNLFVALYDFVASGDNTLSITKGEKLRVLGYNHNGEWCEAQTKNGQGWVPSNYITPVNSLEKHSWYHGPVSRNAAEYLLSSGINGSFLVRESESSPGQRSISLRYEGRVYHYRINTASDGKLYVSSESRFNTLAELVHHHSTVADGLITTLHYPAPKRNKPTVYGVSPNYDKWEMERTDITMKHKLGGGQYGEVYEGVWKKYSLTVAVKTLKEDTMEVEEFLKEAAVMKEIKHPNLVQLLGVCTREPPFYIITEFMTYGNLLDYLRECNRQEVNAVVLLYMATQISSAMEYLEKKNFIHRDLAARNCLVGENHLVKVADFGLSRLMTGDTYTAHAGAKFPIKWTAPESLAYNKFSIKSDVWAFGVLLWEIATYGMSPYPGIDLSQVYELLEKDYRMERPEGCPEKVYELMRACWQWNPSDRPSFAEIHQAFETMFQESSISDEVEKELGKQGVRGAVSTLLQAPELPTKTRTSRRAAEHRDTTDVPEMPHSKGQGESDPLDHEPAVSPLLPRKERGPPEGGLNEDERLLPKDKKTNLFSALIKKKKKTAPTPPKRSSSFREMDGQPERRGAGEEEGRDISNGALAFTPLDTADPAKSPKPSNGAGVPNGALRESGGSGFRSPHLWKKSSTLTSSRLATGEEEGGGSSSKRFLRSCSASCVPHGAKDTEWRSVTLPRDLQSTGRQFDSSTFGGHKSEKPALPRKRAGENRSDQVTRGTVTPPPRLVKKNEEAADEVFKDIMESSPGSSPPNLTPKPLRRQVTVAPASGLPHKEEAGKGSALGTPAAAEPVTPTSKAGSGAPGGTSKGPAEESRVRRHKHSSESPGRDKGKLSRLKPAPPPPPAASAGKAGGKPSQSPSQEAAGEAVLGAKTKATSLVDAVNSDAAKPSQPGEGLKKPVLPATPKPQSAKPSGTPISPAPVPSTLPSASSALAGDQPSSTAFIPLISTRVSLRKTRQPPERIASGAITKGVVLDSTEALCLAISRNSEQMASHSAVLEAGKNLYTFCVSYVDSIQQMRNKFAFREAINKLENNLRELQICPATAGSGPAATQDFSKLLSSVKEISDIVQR
Chain of CLK3 (P49761 whole entry): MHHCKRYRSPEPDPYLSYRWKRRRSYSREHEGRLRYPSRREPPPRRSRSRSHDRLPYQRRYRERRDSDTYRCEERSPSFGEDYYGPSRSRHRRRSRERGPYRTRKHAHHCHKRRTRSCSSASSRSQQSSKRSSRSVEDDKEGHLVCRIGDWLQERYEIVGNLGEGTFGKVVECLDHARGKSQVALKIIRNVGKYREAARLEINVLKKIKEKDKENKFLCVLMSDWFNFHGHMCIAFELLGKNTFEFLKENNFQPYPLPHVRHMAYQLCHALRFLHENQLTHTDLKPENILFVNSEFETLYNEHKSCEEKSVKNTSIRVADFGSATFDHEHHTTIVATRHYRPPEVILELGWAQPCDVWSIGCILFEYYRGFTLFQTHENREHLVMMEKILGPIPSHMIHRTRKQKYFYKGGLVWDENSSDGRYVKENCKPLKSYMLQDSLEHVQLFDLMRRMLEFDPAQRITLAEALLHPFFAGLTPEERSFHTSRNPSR
Chain of EphA2 (P29317 whole entry): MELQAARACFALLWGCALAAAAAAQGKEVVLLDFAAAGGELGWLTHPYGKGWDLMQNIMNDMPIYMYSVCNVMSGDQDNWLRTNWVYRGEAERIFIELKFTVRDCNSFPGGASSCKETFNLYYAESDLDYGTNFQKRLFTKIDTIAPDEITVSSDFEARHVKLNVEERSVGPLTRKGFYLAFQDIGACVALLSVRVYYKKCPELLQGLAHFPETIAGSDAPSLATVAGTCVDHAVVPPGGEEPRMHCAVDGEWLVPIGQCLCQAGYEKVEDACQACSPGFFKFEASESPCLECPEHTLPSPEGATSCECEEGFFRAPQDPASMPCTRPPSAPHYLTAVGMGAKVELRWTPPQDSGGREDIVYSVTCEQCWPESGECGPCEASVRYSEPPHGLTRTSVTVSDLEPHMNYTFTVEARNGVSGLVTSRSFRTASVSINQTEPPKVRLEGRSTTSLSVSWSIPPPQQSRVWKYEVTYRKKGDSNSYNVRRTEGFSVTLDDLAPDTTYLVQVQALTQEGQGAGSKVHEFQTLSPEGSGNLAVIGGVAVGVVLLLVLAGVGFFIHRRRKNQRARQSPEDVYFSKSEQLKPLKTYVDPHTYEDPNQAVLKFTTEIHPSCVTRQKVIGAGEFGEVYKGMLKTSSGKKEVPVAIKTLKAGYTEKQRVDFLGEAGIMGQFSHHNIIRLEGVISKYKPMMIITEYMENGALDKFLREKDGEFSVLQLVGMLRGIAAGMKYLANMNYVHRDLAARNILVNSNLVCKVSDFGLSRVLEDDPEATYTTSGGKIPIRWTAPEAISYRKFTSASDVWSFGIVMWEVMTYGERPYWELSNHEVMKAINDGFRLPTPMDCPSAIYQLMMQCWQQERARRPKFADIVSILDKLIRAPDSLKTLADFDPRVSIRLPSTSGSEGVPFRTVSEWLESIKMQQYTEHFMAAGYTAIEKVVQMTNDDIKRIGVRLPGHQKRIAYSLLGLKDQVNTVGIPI

SMILES: CNc1ncc2cc(-c3ccc(-c4cccc(C)n4)cc3Cl)c(=O)n(CCC3CCNCC3)c2n1 [compound 22, 6-(2-Chloro-4-(6-methylpyridin-2-yl)phenyl)-2-(methylamino)-8-(2-(piperidin-4-yl)ethyl)pyrido[2,3-d]pyrimidin-7(8H)-one]
ΔTm 22 (ABL1): 4.9 °C | ΔTm 22 (CDK2): 2.5 °C | ΔTm 22 (CLK3): -0.4 °C | ΔTm 22 (DRAK1): -1.3 °C | ΔTm 22 (EphA2): 2.3 °C | ΔTm 22 (Erk2): 2.8 °C | ΔTm 22 (FLT1): 2.6 °C | ΔTm 22 (MAP2K4): 6.1 °C | ΔTm 22 (PLK4): 7.3 °C

SMILES: Cc1cccc(-c2ccc(-c3cc4cnc(NCCCc5ccc(N)cc5)nc4n(CCCCN)c3=O)c(Cl)c2)n1 [compound 25, 8-(4-Aminobutyl)-2-((3-(4-aminophenyl)propyl)amino)-6-(2-chloro-4-(6-methylpyridin-2-yl)phenyl)pyrido[2,3-d]pyrimidin-7(8H)-one]
ΔTm 25 (ABL1): 3.9 °C | ΔTm 25 (CDK2): 4.9 °C | ΔTm 25 (CLK3): -0.3 °C | ΔTm 25 (DRAK1): 0.9 °C | ΔTm 25 (EphA2): 3.3 °C | ΔTm 25 (Erk2): 3.1 °C | ΔTm 25 (FLT1): 3.5 °C | ΔTm 25 (MAP2K4): 7.9 °C | ΔTm 25 (PLK4): 6.7 °C

SMILES: Cc1cccc(-c2ccc(-c3cc4cnc(NCCCN5CCOCC5)nc4n(CCCCN)c3=O)c(Cl)c2)n1 [compound 26, MR26]
ΔTm MR26 (26) (ABL1): 2.9 °C | ΔTm MR26 (26) (CDK2): 0.9 °C | ΔTm MR26 (26) (CLK3): -0.4 °C | ΔTm MR26 (26) (DRAK1): 0.2 °C | ΔTm MR26 (26) (EphA2): 4.2 °C | ΔTm MR26 (26) (Erk2): 0.2 °C | ΔTm MR26 (26) (FLT1): 2.7 °C | ΔTm MR26 (26) (MAP2K4): 5.6 °C | ΔTm MR26 (26) (PLK4): 5.1 °C

SMILES: CNc1ncc2cc(-c3ccc(-c4cccc(C)n4)cc3Cl)c(=O)n(C[C@H]3CC[C@H](N)CC3)c2n1 [compound 23, 23]
ΔTm 23 (ABL1): 7.9 °C | ΔTm 23 (CDK2): 3.5 °C | ΔTm 23 (CLK3): 1.0 °C | ΔTm 23 (DRAK1): -1.0 °C | ΔTm 23 (EphA2): 3.2 °C | ΔTm 23 (Erk2): 2.7 °C | ΔTm 23 (FLT1): 4.9 °C | ΔTm 23 (MAP2K4): 8.2 °C | ΔTm 23 (PLK4): 7.1 °C

Next, values leading:

ΔTm MRLW5 (20) (ABL1): 4.9 °C | ΔTm MRLW5 (20) (CDK2): 1.3 °C | ΔTm MRLW5 (20) (CLK3): 0.2 °C | ΔTm MRLW5 (20) (DRAK1): -0.5 °C | ΔTm MRLW5 (20) (EphA2): 3.5 °C | ΔTm MRLW5 (20) (Erk2): 1.3 °C | ΔTm MRLW5 (20) (FLT1): 2.2 °C | ΔTm MRLW5 (20) (MAP2K4): 7.7 °C | ΔTm MRLW5 (20) (PLK4): 5.2 °C
SMILES: CNc1ncc2cc(-c3ccc(-c4cccc(C)n4)cc3Cl)c(=O)n(CCCCN)c2n1 [compound 20, MRLW5]

ΔTm MR24 (24) (ABL1): 1.4 °C | ΔTm MR24 (24) (CDK2): 1.2 °C | ΔTm MR24 (24) (CLK3): -0.2 °C | ΔTm MR24 (24) (DRAK1): 0.0 °C | ΔTm MR24 (24) (EphA2): 0.6 °C | ΔTm MR24 (24) (Erk2): -0.9 °C | ΔTm MR24 (24) (FLT1): 1.0 °C | ΔTm MR24 (24) (MAP2K4): 5.0 °C | ΔTm MR24 (24) (PLK4): 1.3 °C
SMILES: Cc1cccc(-c2ccc(-c3cc4cnc(NC(CO)CO)nc4n(CCCCN)c3=O)c(Cl)c2)n1 [compound 24, 8-(4-Aminobutyl)-6-(2-chloro-4-(6-methylpyridin-2-yl)phenyl)-2-((1,3-dihydroxypropan-2-yl)amino)pyrido[2,3-d]pyrimidin-7(8H)-one]
